Measured values from patent EP2951180B1, “2,6,7,8 SUBSTITUTED PURINES AS HDM2 INHIBITORS” (Merck Sharp & Dohme Corp., priority 2013, dated 2014).

Biological target: T1, HDM2 (Homo sapiens, UniProt Q00987)
T1 construct: Thioredoxin (N); made in house; host or cells: E. coli strain BL21(DE3)Rosetta
Experiment: HDM2 FRET assay (inhibition of binding of FITC labeled p53-pocket peptide to HDM2)
Conditions: Table 11; read-out: FRET IC50
Procedure, shortened: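 Final: 0.5 nM His-HDM2, 3 nM FITC peptide, 0.25 nM Tb anti-His Ab; PBS, 0.01% BSA, 0.01% Tween-20; 0.1% DMSO.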

T1 sequence (Q00987 17-125): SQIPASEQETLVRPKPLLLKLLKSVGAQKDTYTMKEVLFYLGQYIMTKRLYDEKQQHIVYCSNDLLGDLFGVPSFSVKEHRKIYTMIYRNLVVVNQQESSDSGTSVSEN

Row | Structure (SMILES) | IC50 [nM]
1 | C[C@@H](Nc1nc(-c2noc(=O)[nH]2)nc2nc(N3CCCC3C3CCC3)n(C[C@H]3CC[C@H](C)CC3)c12)C1CCC1 (stereo partly drawn) [Example 11.38, 3-(6-{[(1R)-1-cyclobutylethyl]amino}-8-(2-cyclobutylpyrrolidin-1-yl)-7-[(trans-4-methylcyclohexyl)methyl]-7H-purin-2-yl)-1,2,4-oxadiazol-5(2H)-one] | 4.86
2 | COCC1CCCCN1c1nc2nc(-c3noc(=O)[nH]3)nc(N[C@H](C)C3CCC3)c2n1C[C@H]1CC[C@H](C)CC1 (stereo partly drawn) [Example 11.39, 3-(6-{[(1R)-1-cyclobutylethyl]amino}-8-[2-(methoxymethyl)piperidin-1-yl]-7-[(trans-4-methylcyclohexyl)methyl]-7H-purin-2-yl)-1,2,4-oxadiazol-5(2H)-one] | 9.71
3 | C[C@@H](Nc1nc(-c2noc(=O)[nH]2)nc2nc(N3CCCCC3CF)n(C[C@H]3CC[C@H](C)CC3)c12)C1CCC1 (stereo partly drawn) [Example 11.40, 3-(6-{[(1R)-1-cyclobutylethyl]amino}-8-[2-(fluoromethyl)piperidin-1-yl]-7-[(trans-4-methylcyclohexyl)methyl]-7H-purin-2-yl)-1,2,4-oxadiazol-5(2H)-one] | 8.52
4 | CC(C)CC1COCCN1c1nc2nc(-c3noc(=O)[nH]3)nc(N[C@H](C)C3CCC3)c2n1C[C@H]1CC[C@H](C)CC1 (stereo partly drawn) [Example 11.41, 3-(6-{[(1R)-1-cyclobutylethyl]amino}-7-[(trans-4-methylcyclohexyl)methyl]-8-[3-(2-methylpropyl)morpholin-4-yl]-7H-purin-2-yl)-1,2,4-oxadiazol-5(2H)-one] | 14.7
5 | C[C@@H](Nc1nc(-c2noc(=O)[nH]2)nc2nc(N(C)CC3CC3)n(C[C@H]3CC[C@H](C)CC3)c12)C1CCC1 [Example 11.42, 3-(6-{[(1R)-1-cyclobutylethyl]amino}-8-[(cyclopropylmethyl) (methyl)amino]-7-[(trans-4-methylcyclohexyl)methyl]-7H-purin-2-yl)-1,2,4-oxadiazol-5(2H)-one] | 5.34
6 | C[C@@H](Nc1nc(-c2noc(=O)[nH]2)nc2nc(N(C)CC(C)(C)C)n(C[C@H]3CC[C@H](C)CC3)c12)C1CCC1 [Example 11.43, 3-(6-{[(1R)-1-cyclobutylethyl]amino}-8-[(2,2-dimethylpropyl)(methyl)amino]-7-[(trans-4-methylcyclohexyl)methyl]-7H-purin-2-yl)-1,2,4-oxadiazol-5(2H)-one] | 19.4
7 | CCCN(C)c1nc2nc(-c3noc(=O)[nH]3)nc(N[C@H](C)C3CCC3)c2n1C[C@H]1CC[C@H](C)CC1 [Example 11.44, 3-(6-{[(1R)-1-cyclobutylethyl]amino}-7-[(trans-4-methylcyclohexyl)methyl]-8-[methyl(propyl)amino]-7H-purin-2-yl)-1,2,4-oxadiazol-5(2H)-one] | 9.97
8 | C[C@@H](Nc1nc(-c2noc(=O)[nH]2)nc2nc(N3CCCCC3Cc3ccccc3)n(C[C@H]3CC[C@H](C)CC3)c12)C1CCC1 (stereo partly drawn) [Example 11.45, 3-{8-(2-benzylpiperidin-1-yl)-6-{[(1R)-1-cyclobutylethyl]amino}-7-[(trans-4-methylcyclohexyl)methyl]-7H-purin-2-yl}-1,2,4-oxadiazol-5(2H)-one] | 81.9
9 | CC(C)C1CCCN1c1nc2nc(-c3noc(=O)[nH]3)nc(N[C@H](C)C3CCC3)c2n1C[C@H]1CC[C@H](C)CC1 (stereo partly drawn) [Example 11.46, 3-(6-{[(1R)-1-cyclobutylethyl]amino}-7-[(trans-4-methylcyclohexyl)methyl]-8-[2-(1-methylethyl)pyrrolidin-1-yl]-7H-purin-2-yl)-1,2,4-oxadiazol-5(2H)-one] | 4.46
10 | CC1CCCCN1c1nc2nc(-c3noc(=O)[nH]3)nc(N[C@H](C)C3CCC3)c2n1C[C@H]1CC[C@H](C)CC1 (stereo partly drawn) [Example 11.47, 3-[6-{[(1R)-1-cyclobutylethyl]amino}-7-[(trans-4-methylcyclohexyl)methyl]-8-(2-methylpiperidin-1-yl)-7H-purin-2-yl]-1,2,4-oxadiazol-5(4H)-one] | 7.27
11 | CC(C)CN(C)c1nc2nc(-c3noc(=O)[nH]3)nc(N[C@H](C)C3CCC3)c2n1C[C@H]1CC[C@H](C)CC1 [Example 11.48, 3-(6-{[(1R)-1-cyclobutylethyl]amino}-7-[(trans-4-methylcyclohexyl)methyl]-8-[methyl(2-methylpropyl)amino] -7H-purin-2-yl)-1,2,4-oxadiazol-5(4H)-one] | 6.71
12 | C[C@@H](Nc1nc(C(=O)O)nc2nc(N3CCOC[C@H]3c3ccccc3)n(C[C@H]3CC[C@H](C)CC3)c12)C(F)(F)F [Example 11.51, 7-[(trans-4-methylcyclohexyl)methyl]-8-[(3R)-3-phenylmorpholin-4-yl]-6-{[(1R)-2,2,2-trifluoro-1-methylethyl]amino}-7H-purine-2-carboxylic acid] | 2.26
13 | CCC1CCCCN1c1nc2nc(C(=O)O)nc(N[C@H](C)C3CCC3)c2n1C[C@H]1CC[C@H](C)CC1 (stereo partly drawn) [Example 11.52, 6-{[(1R)-1-cyclobutylethyl]amino}-8-(2-ethylpiperidin-1-yl)-7-[(trans-4-methylcyclohexyl)methyl]-7H-purine-2-carboxylic acid] | 3.43
14 | C[C@@H](Nc1nc(-c2noc(=O)[nH]2)nc2nc(N3CCOC[C@H]3c3ccccc3)n(C[C@H]3CC[C@H](C)CC3)c12)C(F)(F)F [Example 11.53, 3-(7-[(trans-4-methylcyclohexyl)methyl]-8-[(3R)-3-phenylmorpholin-4-yl]-6-{[(1R)-2,2,2-trifluoro-1-methylethyl]amino}-7H-purin-2-yl)-1,2,4-oxadiazol-5(4H)-one] | 4.68
15 | CC(C)C1CCCCN1c1nc2nc(C(=O)O)nc(N[C@H](C)C3CCC3)c2n1C[C@H]1CC[C@H](C)CC1 (stereo partly drawn) [Example 11.54, 6-{[(1R)-1-cyclobutylethyl]amino}-7-[(trans-4-methylcyclohexyl)methyl]-8-[2-(1-methylethyl)piperidin-1-yl] -7H-purine-2-carboxylic acid] | 3.31
16 | C[C@@H](Nc1nc(-c2n[nH]c(=O)o2)nc2nc(N3CCOC[C@H]3c3ccccc3)n(C[C@H]3CC[C@H](C)CC3)c12)C1CCC1 [Example 11.55, 5-(6-{[(1R)-1-cyclobutylethyl]amino}-7-[(trans-4-methylcyclohexyl)methyl]-8-[(3R)-3-phenylmorpholin-4-yl]-7H-purin-2-yl)-1,3,4-oxadiazol-2(3H)-one] | 2.14
17 | C[C@@H](Nc1nc(C(=O)O)nc2nc(N3CCCCC3Cc3ccc(F)cc3)n(C[C@H]3CC[C@H](C)CC3)c12)C1CCC1 (stereo partly drawn) [Example 11.56, 6-{[(1R)-1-cyclobutylethyl]amino}-8-[2-(4-fluorobenzyl)piperidin-1-yl]-7-[(trans-4-methylcyclohexyl)methyl]-7H-purine-2-carboxylic acid] | 11.6
18 | C[C@@H](Nc1nc(-c2noc(=O)[nH]2)nc2nc(-n3ccnc3)n(C[C@H]3CC[C@H](C)CC3)c12)C1CCC1 [Example 11.57, 3-(6-{[(1R)-1-cyclobutylethyl]amino}-8-(1H-imidazol-1-yl)-7-[(trans-4-methylcyclohexyl)methyl]-7H-purin-2-yl)-1,2,4-oxadiazol-5(4H)-one] | 16.4
19 | C[C@@H](Nc1nc(-c2noc(=O)[nH]2)nc2nc(N3CCC[C@H]4CCCC[C@@H]43)n(C[C@H]3CC[C@H](C)CC3)c12)C1CCC1 [Example 11.60, 3-(6-{[(1R)-1-cyclobutylethyl]amino}-7-[(trans-4-methylcyclohexyl)methyl]-8-[(4aR,8aS)-octahydroquinolin-1(2H)-yl]-7H-purin-2-yl)-1,2,4-oxadiazol-5(4H)-one] | 10.5
20 | C[C@@H](Nc1nc(-c2noc(=O)[nH]2)nc2nc(N3CCC[C@@H]4CCCC[C@H]43)n(C[C@H]3CC[C@H](C)CC3)c12)C1CCC1 [Example 11.61, 3-(6-{[(1R)-1-cyclobutylethyl]amino}-7-[(trans-4-methylcyclohexyl)methyl]-8-[(4aS,8aR)-octahydroquinolin-1(2H)-yl]-7H-purin-2-yl)-1,2,4-oxadiazol-5(4H)-one] | 5.13
21 | C[C@H]1CC[C@H](Cn2c(N3CCOC[C@H]3c3ccccc3)nc3nc(-c4noc(=O)[nH]4)nc(N4CCCC4C4CCC4)c32)CC1 (stereo partly drawn) [Example 11.62, 3-{6-(2-cyclobutylpyrrolidin-1-yl)-7-[(trans-4-methylcyclohexyl)methyl]-8-[(3R)-3-phenylmorpholin-4-yl]-7H -purin-2-yl}-1,2,4-oxadiazol-5(4H)-one] | 7.84
22 | Cc1nonc1CN(C)c1nc2nc(-c3noc(=O)[nH]3)nc(N[C@H](C)C3CCC3)c2n1C[C@H]1CC[C@H](C)CC1 [Example 11.63, 3-(6-{[(1R)-1-cyclobutylethyl]amino}-7-[(trans-4-methylcyclohexyl)methyl]-8-{methyl[(4-methyl-1,2,5-oxadiazol-3-yl)methyl]amino}-7H-purin-2-yl)-1,2,4-oxadiazol-5(4H)-one] | 3.71
23 | C[C@@H](Nc1nc(-c2noc(=O)[nH]2)nc2nc(N(C)Cc3ccon3)n(C[C@H]3CC[C@H](C)CC3)c12)C1CCC1 [Example 11.64, 3-(6-{[(1R)-1-cyclobutylethyl]amino}-8-[(isoxazol-3-ylmethyl)(methyl)amino]-7-[(trans-4-methylcyclohexyl)methyl]-7H-purin-2-yl)-1,2,4-oxadiazol-5(4H)-one] | 5.77
24 | C[C@@H]1COCCN1c1nc2nc(-c3noc(=O)[nH]3)nc(N[C@H](C)C3CCC3)c2n1C[C@H]1CC[C@H](C)CC1 [Example 11.65, 3-(6-{[(1R)-1-cyclobutylethyl]amino}-7-[(trans-4-methylcyclohexyl)methyl]-8-[(3R)-3-methylmorpholin-4-yl]-7H-purin-2-yl)-1,2,4-oxadiazol-5(4H)-one] | 1.45
25 | C[C@@H](Nc1nc(-c2noc(=O)[nH]2)nc2nc(N3CCOC[C@@H]3C)n(C[C@H]3CC[C@H](C)CC3)c12)C1CCC1 [Example 11.66, 3-(6-{[(1R)-1-cyclobutylethyl]amino}-7-[(trans-4-methylcyclohexyl)methyl]-8-[(3S)-3-methylmorpholin-4-yl]-7H-purin-2-yl)-1,2,4-oxadiazol-5(4H)-one] | 5.8
